In US20190111026A1, “ANTI-TRITRICHOMONAS AGENT” (Pola Pharma Inc., priority 2016, published 2019):
Converted amounts (≈) assume the structure as drawn.

What was measured:
[1] = Particle size by laser diffraction method (Microtrac MT3000); format: physicochemical; settings: dispersion medium: water
Method: (§1) Luliconazole was ground with a mortar to change the particle size, and the anti-Tritrichomonas activity of solid luliconazole was studied. More specifically, luliconazole having a variety of particle sizes was added in an amount of 5 mg to 5 mL of Diamond's media supplemented with 10% adult bovine serum, and 10,000 cells of Tritrichomonas mobilensis were inoculated on the media, cultured at 35° C. for 24 hours, and then measured for the number of viable T. mobilensis cells by use of a Neubauer hemocytometer. Luliconazole was not added to the control group. The growth inhibition rate was calculated as follows: [(the number of viable cells of the control group−the number of viable cells of the sample group)/the number of viable cells of the control group]×100. […] It is noted that the particle size was measured by a laser diffraction method (Microtrac MT3000, manufactured by NIKKISO CO., LTD; dispersion medium: water).

[2] = system: Tritrichomonas mobilensis; assay: Anti-Tritrichomonas activity of solid ground luliconazole (viable count, growth inhibition rate); format: cell-based; settings: 35° C., 24 hours; for Viable Cell Count Ave.: 5 mg solid in 5 mL Diamond's medium with 10% adult bovine serum, 10,000 cells inoculated; for Growth Inhibition Rate: 5 mg solid in 5 mL medium, 10,000 cells, [(control-sample)/control]×100
Method: It is noted that the growth inhibition rate is calculated as follows: [(the number of viable cells of the control group−the number of viable cells of the sample group)/the number of viable cells of the control group]×100. It is preferred that the anti-Tritrichomonas effect is determined 24 to 72 hours after the inoculation of 10,000 cells of Tritrichomonas protozoa on 5 mL of liquid medium in which 5 mg of sample luliconazole is added. As the liquid medium, it is preferred to use Diamond's medium with 5% to 15% adult bovine serum added as desired.
as §1

[3] = system: Tritrichomonas mobilensis; assay: Anti-Tritrichomonas effect of supernatant from medium stored with ground luliconazole; format: cell-based; settings: supernatant of medium stored with 5 mg ground luliconazole at 35° C. for 24 hours
Method: In order to confirm the influence of luliconazole which was eluted in the solutions in Example 2, 7 minute-ground luliconazole was added in an amount of 5 mg to Diamond's medium with 10% adult bovine serum added, and stored at 35° C. for 24 hours, and the supernatant was obtained from the Diamond's medium. Tritrichomonas mobilensis was inoculated on the supernatant, cultured at 35° C. for 24 hours and measured for the number of viable cells by use of a Neubauer hemocytometer. Luliconazole was not added to the control group. The result from the control group was 973,333±23,094 while the result from the supernatant was 1,000,000±144,222. […] In this regard as well, it is clear that luliconazole can control effectively Tritrichomonas protozoa in the intestinal tract.

[4] = from Lulicon Cream Pharmaceutical Product Interview Form 2006; cited from earlier work
[5] = system: Tritrichomonas mobilensis (T. mobilensis: USA: M776 c12); assay: Activity of luliconazole in solution against Tritrichomonas mobilensis (viable count, Neubauer hemocytometer); format: cell-based; settings: luliconazole dissolved in methanol, Diamond's medium with 10% adult bovine serum, 35° C., 24 hours
Method: The activity of luliconazole against Tritrichomonas mobilensis of the genus Tritrichomonas (T. mobilensis: USA: M776 c12) was studied. Luliconazole as synthesized according to the method disclosed in the above JP 60-218387 A was used as a sample. More specifically, Tritrichomonas protozoa were cultured on Diamond's medium with 10% adult bovine serum added. Luliconazole was dissolved in 100 μL of methanol to obtain solutions having a variety concentrations of luliconazole. The cultures were then inoculated on 5 mL of 10% adult bovine serum-added Diamond's media in which the solutions were added, cultured at 35° C. for 24 hours, and then measured for the number of viable Tritrichomonas protozoa by use of a Neubauer hemocytometer. MIC and IC50 were obtained from the number of viable protozoa. MIC was 50 μg/mL and IC50 was 10. 1 μg/mL.

D50 [1] [μm]	IC50 [5] [µg/mL]	MIC [5] [µg/mL]	SMILES	Viable Cell Count Ave. [2]	Growth Inhibition Rate [2]	anti-Tritrichomonas effect of supernatant [3]	number of viable cells ([3]; culture 35° C., 24 hours, control 973,333±23,094)	solubility in water [4]
96.6			N#C/C(=C1/SC[C@@H](c2ccc(Cl)cc2Cl)S1)n1ccnc1 [6-minute ground luliconazole, luliconazole]	20,000	88.7			
114.4			N#C/C(=C1/SC[C@@H](c2ccc(Cl)cc2Cl)S1)n1ccnc1 [5-minute ground luliconazole, luliconazole]	43,333	75.5			
84.7			N#C/C(=C1/SC[C@@H](c2ccc(Cl)cc2Cl)S1)n1ccnc1 [7-minute ground luliconazole, luliconazole]	20,000	88.7	did not have anti-Tritrichomonas effect	1,000,000±144,222	
78.5			N#C/C(=C1/SC[C@@H](c2ccc(Cl)cc2Cl)S1)n1ccnc1 [8-minute ground luliconazole, luliconazole]	26,667	84.9			
	10.1 (≈ 28.5 µM)	50 (≈ 141 µM)	N#C/C(=C1/SC[C@@H](c2ccc(Cl)cc2Cl)S1)n1ccnc1 [Luliconazole, luliconazole]					insoluble in water
